Assay results reported in patent US20240350647A1, “STING SENSITIZING AGENTS” (STipe Therapeutics ApS, priority 2023, published 2024).
Where a SMILES comes first, the peptide text is derived from it. Bridges are numbered along the chain shown (N, C = ends). [ ]: non-standard residue; d: D form. The star is where a group is joined. C16 diacid = O=C(O)CCCCCCCCCCCCCCC(=O)*; AEEA = NCCOCCOCC(=O)O

Columns and labels:
[1] = FIG. 10B; conditions: rat, in vivo, iv, 10 mg/kg
Description: Table printed on a drawing sheet, FIG. 10B
The patent's description of the figure: FIGS. 10A-10C. Pharmacokinetic profile and parameter for peptides after intravenous administration. FIG. 10A) Mouse PK data (10 mg/kg, bolus IV, n=3 per timepoint). FIG. 10B) Rat PK data (10 mg/kg, bolus IV, n=3 per timepoint). FIG. 10C) Non-human primate (NHP) PK data (4 mg/kg, 30 min IV infusion, n=3). Error bars represent the standard deviation (SD).
First reader's note: Rat PK parameters; the plot legend on the same sheet gives 10 mg/kg (IV) for both agents, and the top-left cell 'PK parameters / rat' spans the first two rows.

[2] = Pharmacokinetics after 30-min intravenous infusion, cynomolgus monkey; type: in vivo; conditions: 4 mg/kg 30 min IV infusion
Description: Test agents were formulated in 2% (v/v) propylene glycol in 25 mM HEPES, pH 7.4 and administered with a bolus injection at 10.0 mg/kg via the tail vain to male CD-1 mice (Charles River Laboratories) or male Wistar rats (Charles River Laboratories), or with a 30-min intravenous infusion at 4 mg/kg to male cynomolgus monkeys.
Blood samples were collected at 2.5, 5, 10, 30, 60, 120, 240 and 480 minutes after administration (mouse and rat), or at 5, 15, 30, 60, 120, 240, 360, 480 and 1440 min (Agent 1) or at 5, 15, 30, 45, 60, 90, 150, 240 and 480 min (Agent 2) after the start of infusion in monkeys. […]
Monkey samples, Agent 1: Separation was done with a C18 column (Waters Acquity UPLC BEH C18 (50×2.1 mm, 1.7 μm)), using a gradient between 0.1% formic acid in water and 0.1% formic acid in acetonitrile. […] The range of quantitation was 10-3,000 ng/mL.
Monkey samples, Agent 2: Separation was done with a C18 column (Waters Acquity CSH C18 (50×2.1 mm, 1.7 μm)), using a gradient between 0.2% formic acid in acetonitrile and 0.2% formic acid in water. […] The range of quantitation was 10-10,000 ng/mL.
Non-compartmental PK analysis on plasma concentration versus time data was analyzed by non-compartmental approaches using the WinNonlin software program (version 6.3 or above, Pharsight, Mountain View, CA). […]

CC[C@H](C)[C@H](NC(=O)[C@H](CC(N)=O)NC(=O)[C@H](CCCCN)NC(=O)[C@H](C)NC(=O)[C@H](CCCCN)NC(=O)[C@H](CCCCN)NC(=O)COCCOCCNC(=O)COCCOCCNC(=O)CCCCCCCCCCCCCCC(=O)O)C(=O)N[C@H](C(=O)N[C@@H](CC(C)C)C(=O)N[C@@H](CC(C)C)C(=O)N[C@@H](CCCCN)C(=O)NCC(=O)N[C@@H](CC(C)C)C(=O)N[C@@H](CCC(=O)O)C(=O)N[C@H](C(=O)N[C@H](C(=O)N[C@@H](CC(N)=O)C(=O)N[C@@H](CC(=O)O)C(=O)N[C@@H](Cc1c[nH]c2ccccc12)C(=O)N[C@@H](Cc1c[nH]cn1)C(=O)N[C@@H](Cc1ccccc1)C(=O)N[C@H]1CSSC[C@@H](C(N)=O)NC(=O)[C@@H](CCCNC(=N)N)NC(=O)[C@H](CCCNC(=N)N)NC(=O)[C@@H](CCCCN)NC(=O)[C@H](CCCCN)NC(=O)[C@@H](CCCNC(=N)N)NC(=O)CNC(=O)[C@@H](CCCNC(=N)N)NC(=O)[C@H](CCCNC(=N)N)NC(=O)[C@@H](CCCNC(=N)N)NC1=O)[C@@H](C)CC)C(C)C)C(C)C [Agent 1] ({C16 diacid-AEEA-AEEA}-KKAKNIVLLKGLEVINDWHFC[dR]R[dR]G[dR]K[dK]R[dR]C-NH2; disulfide 21-31)
C0 [1]: 72.7 µg/mL | increase in exposure (AUC0-inf) compared to Agent 2, at equal dose [2]: ~13 fold
